Test results as given in US20040229268A1, “Method and kit for identifying antibiotic-resistant microorganisms” (priority 2003, published 2004).

Test system: mecA gene; rRNA (pan-bacterial probe)
Assay: Hybridization Protection Assay (HPA), AE-labeled probes, thermally lysed specimens (Examples 1-2)
Type: binding, S. aureus
Method: The specimens were lysed by suspending approximately 5×10^8 cells in a lysis buffer (0.1% lithium lauryl sulfate, 1 mM EDTA, 20 mM lithium succinate, pH 5.5) and then incubating in a heat block set at 110° C. for 20 minutes. Thermal lysis of a variety of other specimens was effected under a range of temperature (heat block set at about 95° C. to 110° C.) and time (about 10 to 25 minutes) conditions. The lysed samples were tested for the presence of target sequences complementary to the probes using a Hybridization Protection Assay (HPA) as described by Arnold et al., in Clin. Chem. 35:1588(1989) and U.S. Pat. No. 6,004,745. 50 μl of the heat-treated suspension was incubated with an equal volume of AE-labeled probe in 2× hybridization buffer (1.2 M LiCl, 2% lithium lauryl sulfate, 20 mM EDTA, 20 mM EGTA, 100 mM lithium succinate, pH 5.5) at 60° C. for 30 minutes. The pH of succinate solutions may range from about 4.5 to about 5.5, although it is desirable to use a pH of 4.8 for succinate buffering. 300 μl of a selection reagent (0.6 M borate buffered solution, pH 8.5; note, pH may vary from 8.0 to 9.0) was added, the mixture was heated at 60° C. for 10 minutes to effect differential hydrolysis, and the samples were read in a GEN-PROBE® LEADER® luminometer using sequential 300 μl injections of 0.1% H2O2 and 1 N NaOH solutions (see Arnold et al, supra; GEN-PROBE® Detection Reagent Kit, Cat. No. 1791 may be used).
Procedures similar to those described in Example 1 were conducted using a large number of bacterial samples, except that parallel hybridization reactions employed a pan-bacterial probe which targeted rRNA (Probe Reagent 1, GEN-PROBE® MTC-NI Kit, catalog no. 4573). […] The pan-bacterial probe reagent served as a positive control for lysis of all of the specimens. In this procedure each sample was tested against a panel of the three probes contained in separate hybridization reactions. Aliquots of the samples tested using the pan-bacterial probe reagent were diluted 1:3000 prior to performing luminometry so that results fell within the linear range of the detector. The signals indicated lysis and detection of ribosomal nucleic acids in each of the samples. These values depended on the number of bacterial cells in the specimen, as well as on the extent of cell lysis and the release or accessibility of ribosomal nucleic acids from the cells to be detected by the pan-bacterial probe.

Q: What does the source list for “CGCTATGATCCCAATCTAACTTCCACATACC (AE label, linker between 21 and 22, chemistry not fully specified; listed as Staphylococcus aureus) [Probe 2]”?
A: AE-probe Average RLU (No Specimen): 3062 RLU; AE-probe Average RLU (S. aureus specimen #99, mecA PCR Pos): 8072 RLU; AE-probe Average RLU (S. aureus specimen #100, mecA PCR Neg): 5585 RLU; AE-Probe Signal (RLU) (Table 2, Negative Control): 1931 RLU; AE-Probe Signal (RLU) (Table 2, specimen 10, mecA PCR Neg, pan-bacterial diluted 1:3000 prior to luminometry): 3274 RLU; AE-Probe Signal (RLU) (Table 2, specimen 99, mecA PCR Pos, pan-bacterial diluted 1:3000 prior to luminometry): 13021 RLU; AE-Probe Signal (RLU) (Table 2, specimen 100, mecA PCR Neg, pan-bacterial diluted 1:3000 prior to luminometry): 6186 RLU; AE-Probe Signal (RLU) (Table 2, specimen 101, mecA PCR Neg, pan-bacterial diluted 1:3000 prior to luminometry): 6266 RLU; AE-Probe Signal (RLU) (Table 2, specimen 102, mecA PCR Pos, pan-bacterial diluted 1:3000 prior to luminometry): 13065 RLU; AE-Probe Signal (RLU) (Table 2, specimen 103, mecA PCR Neg, pan-bacterial diluted 1:3000 prior to luminometry): 2366 RLU; AE-Probe Signal (RLU) (Table 2, specimen 104, mecA PCR Neg, pan-bacterial diluted 1:3000 prior to luminometry): 2000 RLU; AE-Probe Signal (RLU) (Table 2, specimen 105, mecA PCR Neg, pan-bacterial diluted 1:3000 prior to luminometry): 2714 RLU; AE-Probe Signal (RLU) (Table 2, specimen 106, mecA PCR Neg, pan-bacterial diluted 1:3000 prior to luminometry): 2989 RLU; AE-Probe Signal (RLU) (Table 2, specimen 139, mecA PCR Pos, pan-bacterial diluted 1:3000 prior to luminometry): 9563 RLU; AE-Probe Signal (RLU) (Table 2, specimen 140, mecA PCR Pos, pan-bacterial diluted 1:3000 prior to luminometry): 4967 RLU; AE-Probe Signal (RLU) (Table 2, specimen 142, mecA PCR Pos, pan-bacterial diluted 1:3000 prior to luminometry): 10345 RLU; AE-Probe Signal (RLU) (Table 2, specimen 145, mecA PCR Neg, pan-bacterial diluted 1:3000 prior to luminometry): 2788 RLU; AE-Probe Signal (RLU) (Table 2, specimen 148, mecA PCR Pos, pan-bacterial diluted 1:3000 prior to luminometry): 15878 RLU; AE-Probe Signal (RLU) (Table 2, specimen 155, mecA PCR Neg, pan-bacterial diluted 1:3000 prior to luminometry): 2257 RLU; AE-Probe Signal (RLU) (Table 2, specimen 164, mecA PCR Neg, pan-bacterial diluted 1:3000 prior to luminometry): 3287 RLU; AE-Probe Signal (RLU) (Table 2, specimen 178, mecA PCR Pos, pan-bacterial diluted 1:3000 prior to luminometry): 12652 RLU; AE-Probe Signal (RLU) (Table 2, specimen 188, mecA PCR Pos, pan-bacterial diluted 1:3000 prior to luminometry): 20757 RLU; AE-Probe Signal (RLU) (Table 2, specimen 270, mecA PCR Pos, pan-bacterial diluted 1:3000 prior to luminometry): 14965 RLU; AE-Probe Signal (RLU) (Table 2, specimen 296, mecA PCR Pos, Lab Pos control, pan-bacterial diluted 1:3000 prior to luminometry): 10585 RLU
